We go through four molecules from patent US12251368B2, “Continuous administration of pharmaceutical composition for treatment of neurodegenerative disorders” (InTrance Medical Systems Inc., priority 2018, dated 2025).

Values joined by “and” are separate entries in the source; they are usually repeats but may differ in a detail not shown here. Equal entries are not always repeated.

Series [1] in a line: Storage stability / shelf life of intra-intestinal gel. In kind it is physicochemical.
For series [2], the target named is T1, peripheral dopamine decarboxylase (Homo sapiens, UniProt P20711).
T1 construct: host or cells: patients (peripheral tissues)
T1 sequence (P20711 1-480): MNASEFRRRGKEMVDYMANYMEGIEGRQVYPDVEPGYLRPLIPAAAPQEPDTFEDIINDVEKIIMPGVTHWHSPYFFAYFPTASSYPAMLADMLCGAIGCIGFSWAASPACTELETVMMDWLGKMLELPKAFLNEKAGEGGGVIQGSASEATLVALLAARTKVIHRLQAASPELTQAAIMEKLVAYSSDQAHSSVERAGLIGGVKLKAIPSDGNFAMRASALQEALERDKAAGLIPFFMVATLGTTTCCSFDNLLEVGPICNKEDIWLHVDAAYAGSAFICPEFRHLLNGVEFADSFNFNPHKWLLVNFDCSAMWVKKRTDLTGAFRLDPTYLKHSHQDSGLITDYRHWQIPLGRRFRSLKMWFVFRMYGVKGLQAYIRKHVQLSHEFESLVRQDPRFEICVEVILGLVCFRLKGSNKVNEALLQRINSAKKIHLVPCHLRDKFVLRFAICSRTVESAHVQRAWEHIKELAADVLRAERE
The conditions noted are these: KINSON prescribing information; cited from earlier work.

The conditions of series [3]: in vivo; cited from earlier work.
The conditions of series [4]: cited from earlier work.
The conditions of series [5]: cited from earlier work. This is another data set of the same source.
The conditions of series [6]: in the presence of COMT inhibitors; literature reports; cited from earlier work.
The conditions of series [7]: intravenous administration (3 mg/kg); cited from earlier work.

On to `C[C@@](Cc1ccc(O)c(O)c1)(NN)C(=O)O` [Carbidopa, (−)-L-α-hydrazino-α-methyl-β-(3,4-dihydroxybenzene) propanoic acid monohydrate], for which the “effect of storage in a light reducing container on degradation” value in series [1] (light reducing container, such as an aluminum bag) is listed as “some positive effect”. In addition, in series [2], the “dose at which peripheral dopamine decarboxylase is saturated” value was 70-100 mg per day. Also, the “crossing of the blood-brain barrier” value in series [3] is “does not cross the blood-brain barrier”. In addition, the solubility in water entry in series [4] is reported as “slightly soluble in water”.

On to `N[C@@H](Cc1ccc(O)c(O)c1)C(=O)O` [Levodopa, (−)-L-α-amino-β-(3,4-dihydroxybenzene) propanoic acid], for which the bioavailability in series [5] (administered via DUODOPA gel, same as in a tablet) is 81-98%. In series [5] (intake of levodopa alone), the “fraction metabolized to dopamine before levodopa reaches the brain” value is “more than 90%”. The “stability in intra-intestinal gel” value in series [1] (prior art LCIG and gel compositions of the invention) was “relatively stable”. Moreover, in series [3], the “crossing of the blood-brain barrier” value is given as “does cross the blood-brain barrier”. For the same molecule, in series [4], the solubility in water result is “slightly soluble in water”.

With `Cc1ccc(C(=O)c2cc(O)c(O)c([N+](=O)[O-])c2)cc1` [Tolcapone, (3,4-Dihydroxy-5-nitrophenyl)(4-methylphenyl)methanone], the Levodopa bioavailablity increase in series [6] is 33% and 25%. In addition, the elimination half-life in series [7] is recorded as 2.9 h.

Regarding `NCCc1ccc(O)c(O)c1` [dopamine, 3,4-dihydroxyphenethylamine], the “crossing of the blood-brain barrier” value in series [3] is on record as “does not cross the blood-brain barrier”.
